Experiments:
Test in all cases: Test E greenhouse herbicide test, pre- and postemergence
Format in all cases: in vivo
[1] = system: foxtail, green (green foxtail, Setaria viridis); details: Preemergence
Outline: (§1)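 Seeds were sown in silt loam and sprayed preemergence with compound in a non-phytotoxic solvent mix containing surfactant; for postemergence, plants at 2 to 18 cm (1- to 4-leaf stage) in peat-based potting medium were sprayed with the same formulation. After 14 to 21 d in a greenhouse, injury was rated visually against controls (0–100).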

[2] = system: arrowleaf sida (Sida rhombifolia)
Outline: as §1

[3] = system: foxtail, giant (giant foxtail, Setaria faberii); details: Preemergence
Outline: as §1

[4] = system: johnsongrass (Sorghum halepense); details: Preemergence
Outline: as §1

[5] = system: lambsquarters (Chenopodium album); details: Preemergence
Outline: as §1

[6] = system: panicum, fall (fall panicum, Panicum dichotomiflorum)
Outline: as §1

[7] = system: corn (Zea mays)
Outline: as §1

[8] = system: velvetleaf (Abutilon theophrasti); details: Preemergence
Outline: as §1

[9] = system: nightshade (eastern black nightshade, Solanum ptycanthum); details: Preemergence
Outline: as §1

[10] = system: nutsedge, yellow (yellow nutsedge, Cyperus esculentus); details: Preemergence
Outline: as §1

[11] = system: waterhemp (common waterhemp, Amaranthus rudis)
Outline: as §1

[12] = system: momingglory (Ipomoea coccinea); details: Preemergence
Outline: as §1

[13] = system: surinam grass (Brachiaria decumbens); details: Preemergence
Outline: as §1

[14] = system: wild poinsettia (Euphorbia heterophylla)
Outline: as §1

[15] = system: field bindweed (Convolvulus arvensis)
Outline: as §1

[16] = 62 g ai/ha, scale 0 to 100 (0 no effect, 100 complete control)
[17] = 16 g ai/ha, scale 0 to 100, 0 no effect, 100 complete control
[18] = 31 g ai/ha, scale 0 to 100, 0 no effect, 100 complete control
[19] = 125 g ai/ha, visual, scale 0 no effect to 100 complete control
[20] = 250 g ai/ha, visual, scale 0 no effect to 100 complete control
[21] = 62 g ai/ha, Postemergence, scale 0 to 100 (0 no effect, 100 complete control)
[22] = 62 g ai/ha, Preemergence, scale 0 to 100 (0 no effect, 100 complete control)
[23] = 125 g ai/ha, Postemergence, scale 0 to 100 (0 no effect, 100 complete control)
[24] = 250 g ai/ha, Postemergence, scale 0 to 100 (0 no effect, 100 complete control)
[25] = Postemergence, 16 g ai/ha, visual, scale 0 no effect to 100 complete control
[26] = Postemergence, 31 g ai/ha, visual, scale 0 no effect to 100 complete control
[27] = Preemergence, 16 g ai/ha, scale 0 to 100, 0 no effect, 100 complete control
[28] = Preemergence, 31 g ai/ha, scale 0 to 100, 0 no effect, 100 complete control
[29] = Preemergence, 125 g ai/ha, visual, scale 0 no effect to 100 complete control
[30] = Preemergence, 250 g ai/ha, visual, scale 0 no effect to 100 complete control
[31] = 125 g ai/ha, Preemergence, scale 0 to 100 (0 no effect, 100 complete control)
[32] = 125 g ai/ha, scale 0 to 100 (0 no effect, 100 complete control)

SMILES: Cc1cc(C)c2sc(C)c(-c3c(O)c(C)nn(C)c3=O)c2c1 [Compound 2, 5-hydroxy-2,6-dimethyl-4-(2,5,7-trimethylbenzo[b]thien-3-yl)-3(2H)-pyridazinone]
- Plant response rating, Foxtail, Green [1, 16]: 95
- Plant response rating, Foxtail, Green [1, 17]: 0
- Plant response rating, Foxtail, Green [1, 18]: 35
- Plant response rating, Foxtail, Green [1, 19]: 95
- Plant response rating, Foxtail, Green [1, 20]: 98
- Plant response rating, Arrowleaf Sida [2, 21]: 30
- Plant response rating, Arrowleaf Sida [2, 22]: 0
- Plant response rating, Arrowleaf Sida [2, 23]: 35
- Plant response rating, Arrowleaf Sida [2, 24]: 40
- Plant response rating, Arrowleaf Sida [2, 25]: 0
- Plant response rating, Arrowleaf Sida [2, 26]: 25
- Plant response rating, Arrowleaf Sida [2, 27]: 0
- Plant response rating, Arrowleaf Sida [2, 28]: 0
- Plant response rating, Arrowleaf Sida [2, 29]: 0
- Plant response rating, Arrowleaf Sida [2, 30]: 5
- Plant response rating, Foxtail, Giant [3, 16]: 95
- Plant response rating, Foxtail, Giant [3, 17]: 40
- Plant response rating, Foxtail, Giant [3, 18]: 75
- Plant response rating, Foxtail, Giant [3, 19]: 98
- Plant response rating, Foxtail, Giant [3, 20]: 98
- Plant response rating, Johnsongrass [4, 16]: 20
- Plant response rating, Johnsongrass [4, 17]: 0
- Plant response rating, Johnsongrass [4, 18]: 35
- Plant response rating, Johnsongrass [4, 19]: 35
- Plant response rating, Johnsongrass [4, 20]: 50
- Plant response rating, Lambsquarters [5, 16]: 98
- Plant response rating, Lambsquarters [5, 17]: 50
- Plant response rating, Lambsquarters [5, 18]: 100
- Plant response rating, Lambsquarters [5, 19]: 98
- Plant response rating, Lambsquarters [5, 20]: 100
- Plant response rating, Panicum, Fall [6, 21]: 70
- Plant response rating, Panicum, Fall [6, 22]: 95
- Plant response rating, Panicum, Fall [6, 23]: 85
- Plant response rating, Panicum, Fall [6, 31]: 98
- Plant response rating, Panicum, Fall [6, 24]: 90
- Plant response rating, Panicum, Fall [6, 25]: 60
- Plant response rating, Panicum, Fall [6, 26]: 70
- Plant response rating, Panicum, Fall [6, 27]: 75
- Plant response rating, Panicum, Fall [6, 28]: 85
- Plant response rating, Panicum, Fall [6, 30]: 100
- Plant response rating, Corn [7, 21]: 0
- Plant response rating, Corn [7, 22]: 0
- Plant response rating, Corn [7, 23]: 5
- Plant response rating, Corn [7, 24]: 5
- Plant response rating, Corn [7, 25]: 0
- Plant response rating, Corn [7, 26]: 0
- Plant response rating, Corn [7, 27]: 0
- Plant response rating, Corn [7, 28]: 0
- Plant response rating, Corn [7, 29]: 0
- Plant response rating, Corn [7, 30]: 0
- Plant response rating, Velvetleaf [8, 16]: 60
- Plant response rating, Velvetleaf [8, 32]: 80
- Plant response rating, Velvetleaf [8, 17]: 0
- Plant response rating, Velvetleaf [8, 18]: 30
- Plant response rating, Velvetleaf [8, 20]: 90
- Plant response rating, Nightshade [9, 16]: 98
- Plant response rating, Nightshade [9, 32]: 98
- Plant response rating, Nightshade [9, 17]: 35
- Plant response rating, Nightshade [9, 18]: 75
- Plant response rating, Nightshade [9, 20]: 100
- Plant response rating, Nutsedge, Yellow [10, 16]: 35
- Plant response rating, Nutsedge, Yellow [10, 32]: 65
- Plant response rating, Nutsedge, Yellow [10, 17]: 0
- Plant response rating, Nutsedge, Yellow [10, 18]: 0
- Plant response rating, Nutsedge, Yellow [10, 20]: 70
- Plant response rating, Waterhemp [11, 21]: 75
- Plant response rating, Waterhemp [11, 22]: 80
- Plant response rating, Waterhemp [11, 23]: 75
- Plant response rating, Waterhemp [11, 31]: 85
- Plant response rating, Waterhemp [11, 24]: 90
- Plant response rating, Waterhemp [11, 25]: 70
- Plant response rating, Waterhemp [11, 26]: 70
- Plant response rating, Waterhemp [11, 27]: 65
- Plant response rating, Waterhemp [11, 28]: 65
- Plant response rating, Waterhemp [11, 30]: 98
- Plant response rating, Morningglory [12, 16]: 90
- Plant response rating, Morningglory [12, 32]: 100
- Plant response rating, Morningglory [12, 17]: 0
- Plant response rating, Morningglory [12, 18]: 75
- Plant response rating, Morningglory [12, 20]: 100
- Plant response rating, Surinam Grass [13, 16]: 75
- Plant response rating, Surinam Grass [13, 32]: 90
- Plant response rating, Surinam Grass [13, 17]: 5
- Plant response rating, Surinam Grass [13, 18]: 35
- Plant response rating, Surinam Grass [13, 20]: 95
- Plant response rating, Poinsettia, Wild [14, 21]: 0
- Plant response rating, Poinsettia, Wild [14, 22]: 30
- Plant response rating, Poinsettia, Wild [14, 23]: 15
- Plant response rating, Poinsettia, Wild [14, 31]: 30
- Plant response rating, Poinsettia, Wild [14, 24]: 15
- Plant response rating, Poinsettia, Wild [14, 25]: 0
- Plant response rating, Poinsettia, Wild [14, 26]: 0
- Plant response rating, Poinsettia, Wild [14, 27]: 0
- Plant response rating, Poinsettia, Wild [14, 28]: 25
- Plant response rating, Poinsettia, Wild [14, 30]: 50
- Plant response rating, Field Bindweed [15, 21]: 65
- Plant response rating, Field Bindweed [15, 22]: 15
- Plant response rating, Field Bindweed [15, 23]: 75
- Plant response rating, Field Bindweed [15, 24]: 80
- Plant response rating, Field Bindweed [15, 25]: 60
- Plant response rating, Field Bindweed [15, 26]: 60
- Plant response rating, Field Bindweed [15, 27]: 0
- Plant response rating, Field Bindweed [15, 28]: 0
- Plant response rating, Field Bindweed [15, 29]: 35
- Plant response rating, Field Bindweed [15, 30]: 70

Reference: patent publication US10597388B2, “Pyridazinone herbicides” (FMC CORPORATION, priority 2014, dated 2020)
